According to patent US20040082635A1, “Fused cyclic compounds and medicinal use thereof” (priority 2001, published 2004):
Where a name gives a salt, the structure may show the parent alone.

Biological target: T1, HCV polymerase (Hepatitis C virus genotype 1b, UniProt P26663)
T1 construct: a region encoding NS5B (591 amino acids; J Virol 1991 Mar, 65(3), 1105-13) was amplified by PCR; 6 His (N); made in house; host or cells: Escherichia coli
Test: biochemical
Details: read-out: HCV polymerase inhibitory activity IC50

T1 sequence (P26663 2420-3010): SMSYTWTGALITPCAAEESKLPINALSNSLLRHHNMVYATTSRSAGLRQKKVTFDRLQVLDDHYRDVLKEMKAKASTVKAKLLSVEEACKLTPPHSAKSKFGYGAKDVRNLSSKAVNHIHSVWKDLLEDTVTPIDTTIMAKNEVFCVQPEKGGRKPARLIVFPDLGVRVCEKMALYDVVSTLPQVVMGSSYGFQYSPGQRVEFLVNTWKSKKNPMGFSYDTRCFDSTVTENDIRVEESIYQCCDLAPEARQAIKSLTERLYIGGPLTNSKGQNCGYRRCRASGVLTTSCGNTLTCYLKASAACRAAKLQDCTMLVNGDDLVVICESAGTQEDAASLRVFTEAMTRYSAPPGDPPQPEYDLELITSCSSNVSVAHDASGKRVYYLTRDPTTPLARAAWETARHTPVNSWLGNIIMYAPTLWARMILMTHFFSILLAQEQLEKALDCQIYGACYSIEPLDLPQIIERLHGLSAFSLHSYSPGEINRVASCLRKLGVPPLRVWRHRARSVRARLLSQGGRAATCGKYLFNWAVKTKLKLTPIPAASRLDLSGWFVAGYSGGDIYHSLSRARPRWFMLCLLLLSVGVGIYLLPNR

Compound	IC50
COc1ccc(-c2ccc(Cl)cc2)c(COc2ccc(-c3nc4cc(C(=O)O)ccc4n3C3CCSCC3)c(F)c2)c1 [Example 276, 2-{4-[2-(4-chlorophenyl)-5-methoxybenzyloxy]-2-fluorophenyl}-1-(4-tetrahydrothiopyranyl)benzimidazole-5-carboxylic acid]	23 nM
O=C(O)c1ccc2c(c1)nc(-c1ccc(Oc3ccccc3O)cc1)n2C1CCCCC1 [Example 106, 1-cyclohexyl-2-[4-(2-hydroxyphenoxy)phenyl]benzimidazole-5-carboxylic acid]	400 nM
O=C(O)c1ccc2c(c1)nc(-c1ccc(Oc3cccc(OCc4ccc(F)cc4)c3)cc1)n2C1CCCCC1 [Example 202, 1-cyclohexyl-2-{4-[3-(4-fluorobenzyloxy)phenoxy]phenyl}-benzimidazole-5-carboxylic acid]	95 nM
O=C(O)c1ccc2c(c1)nc(-c1ccc(Oc3cccc(OCc4ccccn4)c3)cc1)n2C1CCCCC1 [Example 187, 1-cyclohexyl-2-{4-[3-(2-pyridylmethoxy)phenoxy]phenyl}-benzimidazole-5-carboxylic acid]	56 nM
COc1ccc(-c2ccc(Cl)cc2)c(COc2ccc(-c3nc4cc(S(=O)(=O)O)ccc4n3C3CCCCC3)cc2)c1 [Example 257, 2-{4-[2-(4-chlorophenyl)-5-methoxybenzyloxy]phenyl}-1-cyclohexylbenzimidazole-5-sulfonic acid]	74 nM
O=C(O)COc1cccc(Oc2ccc(-c3nc4cc(C(=O)O)ccc4n3C3CCCCC3)cc2)c1 [Example 141, 2-[4-(3-carboxymethyloxyphenoxy)phenyl]-1-cyclohexylbenzimidazole-5-carboxylic acid]	430 nM
O=C(O)c1ccc2c(c1)nc(-c1ccc(Oc3ccccc3OCC3CCNCC3)cc1)n2C1CCCCC1 [Example 160, 1-cyclohexyl-2-{4-[2-(4-piperidylmethoxy)phenoxy]phenyl}-benzimidazole-5-carboxylic acid hydrochloride]	240 nM
N#Cc1ccc(-c2ccc(Cl)cc2)c(COc2ccc(-c3nc4cc(C(=O)O)ccc4n3C3CCCCC3)cc2)c1 [Example 299, 2-{4-[2-(4-chlorophenyl)-5-cyanobenzyloxy]phenyl}-1-cyclohexyl-benzimidazole-5-carboxylic acid]	18 nM
COc1ccc(-c2ccc(Cl)cc2)c(COc2ccc(-c3cc4cc(C(=O)O)ccc4n3C3CCCCC3)cc2)c1 [Example 502, 2-{4-[2-(4-chlorophenyl)-5-methoxybenzyloxy]phenyl}-1-cyclohexyl-1H-indole-5-carboxylate acid]	24 nM
O=C(O)c1ccc2c(c1)nc(-c1ccc(Oc3cccc(O)c3)cc1)n2C1CCCCC1 [Example 107, 1-cyclohexyl-2-[4-(3-hydroxyphenoxy)phenyl]benzimidazole-5-carboxylic acid]	110 nM
CC(C)=CCCOc1cccc(Oc2ccc(-c3nc4cc(C(=O)O)ccc4n3C3CCCCC3)cc2)c1 [Example 163, 1-cyclohexyl-2-{4-[3-(4-methyl-3-pentenyloxy)phenoxy]phenyl}-benzimidazole-5-carboxylic acid]	150 nM
C#CCOc1cccc(Oc2ccc(-c3nc4cc(C(=O)O)ccc4n3C3CCCCC3)cc2)c1 [Example 177, 1-cyclohexyl-2-{4-[3-(2-propynyloxy)phenoxy]phenyl}benzimidazole-5-carboxylic acid]	77 nM
CC(C)NC(=O)c1ccc(-c2ccc(Cl)cc2)c(COc2ccc(-c3nc4cc(-c5noc(=O)[nH]5)ccc4n3C3CCCCC3)c(F)c2)c1 [Example 436, 2-{4-[2-(4-chlorophenyl)-5-(isopropylcarbamoyl)benzyloxy]-2-fluorophenyl}-1-cyclohexyl-5-(2,5-dihydro-5-oxo-4H-1,2,4-oxadiazol-3-yl)benzimidazole hydrochloride]	26 nM
O=C(O)c1ccc2c(c1)nc(-c1ccc(OCc3cc(C(=O)N4CCCC4)ccc3-c3ccc(Cl)cc3)cc1)n2C1CCSCC1 [Example 417, 2-{4-[2-(4-chlorophenyl)-5-(pyrrolidin-1-ylcarbonyl)benzyloxy]phenyl}-1-(tetrahydrothiopyran-4-yl)benzimidazole-5-carboxylic acid hydrochloride]	29 nM
CC(C)(C)c1cc(COc2ccc(-c3nc4cc(C(=O)O)ccc4n3C3CCCCC3)cc2)cc(C(C)(C)C)c1 [Example 83, 1-cyclohexyl-2-[4-(3,5-di-tert-butylbenzyloxy)phenyl]-benzimidazole-5-carboxylic acid]	520 nM
CC(=O)c1ccc(-c2ccc(Cl)cc2)c(COc2ccc(-c3nc4cc(C(=O)O)ccc4n3C3CCCCC3)cc2)c1 [Example 342, 2-{4-[5-acetyl-2-(4-chlorophenyl)benzyloxy]phenyl}-1-cyclohexylbenzimidazole-5-carboxylic acid hydrochloride]	15 nM
CN(C)C(=O)c1ccc(-c2ccc(Cl)cc2)c(COc2ccc(-c3nc4cc(C(=O)O)ccc4n3C3CCCCC3)c(F)c2)c1 [Example 269, 2-{4-[2-(4-chlorophenyl)-5-dimethylcarbamoylbenzyloxy]-2-fluorophenyl}-1-cyclohexylbenzimidazole-5-carboxylic acid hydrochloride]	13 nM
CC(C)=CCOc1cccc(Oc2ccc(-c3nc4cc(C(=O)O)ccc4n3C3CCCCC3)cc2)c1 [Example 113, 1-cyclohexyl-2-{4-[3-(3-methyl-2-butenyloxy)phenoxy]phenyl}-benzimidazole-5-carboxylic acid]	71 nM
O=C(O)c1ccc2c(c1)nc(-c1ccc(OCc3cccnc3-c3ccc(Cl)cc3)cc1)n2C1CCCCC1 [Example 234, 2-{4-[{2-(4-chlorophenyl)-3-pyridyl}methoxy]phenyl}-1-cyclohexylbenzimidazole-5-carboxylic acid dihydrochloride]	22 nM
CN(C)C(=O)c1ccc(COc2ccc(-c3nc4cc(C(=O)O)ccc4n3C3CCCCC3)cc2)c(-c2ccc(Cl)cc2)c1 [Example 357, 2-{4-[2-(4-chlorophenyl)-4-(dimethylcarbamoyl)benzyloxy]phenyl}-1-cyclohexylbenzimidazole-5-carboxylic acid hydrochloride]	19 nM
O=C(O)c1ccc2c(c1)nc(-c1cc(OCc3ccccc3)no1)n2C1CCCCC1 [Example 99, 2-(3-benzyloxy-5-isoxazolyl)-1-cyclohexylbenzimidazole-5-carboxylic acid]	530 nM
Cc1nc(-c2ccc(C(=O)N(C)C)cc2)c(COc2ccc(-c3nc4cc(C(=O)O)ccc4n3C3CCCCC3)cc2)s1 [Example 231, 1-cyclohexyl-2-{4-[{4-(4-dimethylcarbamoylphenyl)-2-methyl-5-thiazolyl}methoxy]phenyl}benzimidazole-5-carboxylic acid]	73 nM
CC(=O)N1CCC(COc2cccc(Oc3ccc(-c4nc5cc(C(=O)O)ccc5n4C4CCCCC4)cc3)c2)CC1 [Example 176, 2-{4-[3-{(1-acetyl-4-piperidyl)methoxy}phenoxy]phenyl}-1-cyclohexylbenzimidazole-5-carboxylic acid]	53 nM
O=C(O)c1ccc2c(c1)nc(-c1ccc(OCc3ccc(C(F)(F)F)cc3)cc1)n2C1CCCC1 [Example 47, 1-cyclopentyl-2-[4-(4-trifluoromethylbenzyloxy)phenyl]benzimidazole-5-carboxylic acid]	540 nM
